Results published in ChEMBL document CHEMBL1122478, “Tricyclic triarylethylene antiestrogens: dibenz[b,f]oxepins, dibenzo[b,f]thiepins, dibenzo[a,e]cyclooctenes, and dibenzo[b,f]thiocins” (1983).

How the values were obtained:
Assay type in all cases: functional
Rattus norvegicus [1] = species: Rattus norvegicus; test: Minimum fully effective dose that prevented implantation of eggs in three out of three rats (MFED) (antifertility)
Mus musculus [2] = test: Sedative activity measured after ip administration to female mice and checked for their horizontal movement at a dose of 5 mg/Kg
Mus musculus [3] = test: Sedative activity measured after ip administration to female mice and checked for their horizontal movement at a dose of 1 mg/Kg
Mus musculus [4] = test: Sedative activity measured after ip administration to female mice and checked for their horizontal movement at a dose of 10 mg/Kg
Rattus norvegicus [5] = species: Rattus norvegicus; test: Dose prevented implantation in two out of 3 rats
Rattus norvegicus [6] = species: Rattus norvegicus; test: Dose prevented implantation in two out of 3 rats;
Rattus norvegicus [7] = species: Rattus norvegicus; test: Dose prevented implantation in two out of three rats

Row | Compound | MFED (Rattus norvegicus [1]) | Reduction in movement (Mus musculus [2]) | further results
1 | C=CCOc1ccc2c(c1)SCc1ccccc1/C(CC)=C\2c1ccccc1 | 5 mg/kg |  | 
2 | C=CCOc1ccc2c(c1)Sc1ccccc1C(CC)=C2c1ccccc1 | >25 mg/kg | 76% | Reduction in movement (Mus musculus [3]): 48%
3 | CCC1=C(c2ccc(O)cc2)c2ccc(OCC(O)CO)cc2Sc2ccccc21 (centres undefined) | 5 mg/kg |  | 
4 | CCC1=C(c2ccc(O)cc2)c2ccc(OCCN(C)C)cc2Sc2ccccc21 | 0.5 mg/kg |  | Reduction in movement (Mus musculus [4]): 45%
5 | C=CCOc1ccc2c(c1)Oc1ccccc1C(CC)=C2c1ccc(O)cc1 | >25 mg/kg |  | 
6 | C=CCOc1ccc2c(c1)Sc1ccccc1C(CC)=C2c1ccc(O)cc1 | 5 mg/kg |  | 
7 | CCC1=C(c2ccc(O)cc2)c2ccc(OCCN(C)C)cc2Oc2ccccc21 | 10 mg/kg | 70% | 
8 | CCC1=C(c2ccccc2)c2ccc(OCC(O)CO)cc2Oc2ccccc21 (centres undefined) | 10 mg/kg |  | 
9 | C=CCOc1ccc2c(c1)Oc1ccccc1C(CC)=C2c1ccccc1 | >25 mg/kg |  | 
10 | CCC1=C(c2ccccc2)c2ccc(O)cc2Sc2ccccc21 | >5 mg/kg | 60% | Reduction in movement (Mus musculus [3]): 34%; Reduction in movement (Mus musculus [4]): 72%
11 | CC/C1=C(\c2ccccc2)c2ccc(OCCN(C)C)cc2SCc2ccccc21 | 0.5 mg/kg |  | 
12 | CCC1=C(c2ccc(O)cc2)c2ccc(OCC(O)CO)cc2Oc2ccccc21 (centres undefined) | 25 mg/kg | 61% | Dose (Rattus norvegicus [5]): 10 mg/kg
13 | C=CCOc1ccc2c(c1)SCc1ccccc1/C(CC)=C\2c1ccc(O)cc1 | 25 mg/kg |  | Dose (Rattus norvegicus [5]): ~10 mg/kg
14 | CC/C1=C(\c2ccccc2)c2ccc(OCC(O)CO)cc2SCc2ccccc21 (centres undefined) |  |  | Dose (Rattus norvegicus [6]): 5 mg/kg
15 | CC/C1=C(\c2ccc(O)cc2)c2ccc(OCCN(C)C)cc2SCc2ccccc21 | 0.5 mg/kg | 61% | 
16 | CCC1=C(c2ccccc2)c2ccc(OCCN(C)C)cc2Oc2ccccc21 | 25 mg/kg |  | Dose (Rattus norvegicus [7]): ~10 mg/kg
17 | CCC1=C(c2ccccc2)c2ccc(OCC(O)CO)cc2Sc2ccccc21 (centres undefined) |  | 84% | Dose (Rattus norvegicus [5]): ~25 mg/kg; Reduction in movement (Mus musculus [3]): 33%
18 | CC/C1=C(\c2ccc(O)cc2)c2ccc(OCC(O)CO)cc2SCc2ccccc21 (centres undefined) | 5 mg/kg | 62% | 
19 | CCC1=C(c2ccccc2)c2ccc(OCCN(C)C)cc2Sc2ccccc21 | 5 mg/kg |  | Dose (Rattus norvegicus [5]): ~1 mg/kg; Reduction in movement (Mus musculus [3]): 49%; Reduction in movement (Mus musculus [4]): 46%
20 | CN(C)CCCN1c2ccccc2Sc2ccc(Cl)cc21 [CHLORPROMAZINE] |  |  | Reduction in movement (Mus musculus [3]): 73%
21 | CC/C(=C(\c1ccccc1)c1ccc(OCCN(C)C)cc1)c1ccccc1 [TAMOXIFEN] | 0.1 mg/kg |  | 
